Results from US20240173292A1, “COMPOUNDS THAT SYNERGIZE WITH COPPER TO KILL STREPTOCOCCUS PNEUMONIAE” (priority 2021, published 2024).
“Also recorded” adds a separate entry of the source. Read-outs that look alike come from different tables or passages of the source.

Legend:
ΔcopA mutant strain = assay: Growth curves in ThyB with copper sulfate and compound, copper exporter deficient mutant; type: cell-based, Streptococcus pneumoniae; conditions: compound plus copper
Excerpt: Final solution was set to pH 6.6.

WT TIGR4 S. pneumoniae [1] = assay: Growth curves in ThyB with copper sulfate and compound; conditions: for copper-dependent toxicity (CDT) / growth defect in growth curve: compound plus copper sulfate
S. aureus = conditions: cited from earlier work
[2] = cited from earlier work
Coccidioides posadasii = conditions: inhaler with 50 mg DMDC twice a day for a week
WT TIGR4 S. pneumoniae [3] = conditions: M17
[4] = test system: Methicillin-resistant Staphylococcus aureus (MRSA); conditions: topical cream containing 50 mg DMDC twice daily
TIGR4 S. pneumoniae [5] = conditions: ICP-OES
WT TIGR4 S. pneumoniae [6] = conditions: RPMI
Streptococcus pneumoniae = conditions: 150 mg DMDC orally once a day for a week
Streptococcus pyogenes = conditions: inhaler with 25 mg DMDC twice a day for two weeks
TIGR4 S. pneumoniae [7] = conditions: GFAAS
WT TIGR4 S. pneumoniae [8] = assay: Killing curves in THYB
[9] = test system: WT TIGR4 bacteria co-cultured with activated J774A.1 macrophages; assay: Macrophage killing assay, TIGR4 co-cultured with J774A.1 macrophages; type: cell-based, murine; conditions: macrophages with 100 μM inhibitor; bacteria treated with 250 μM Cu2+ + 16 μM DMDC
M. tuberculosis = conditions: cited from earlier work
Schistosoma mansoni = conditions: newly transformed and lung stage schistosomula; cited from earlier work

O.c1cnc2c(c1)ccc1cccnc12 [1,10-phenalthroline monohydrate]
CDT / growth defect in growth curve, ΔcopA (ΔcopA mutant strain): an effect
copper-dependent toxicity (CDT) / growth defect in growth curve (WT TIGR4 S. pneumoniae [1]; WT TIGR4): no effect on wild type

Oc1cccc2cccnc12 [8HQ, 8-hydroxyquinoline]
CDT against S. aureus (S. aureus): have CDT
toxicity in mammals ([2]; mammals): inherent toxicity
CDT / growth defect in growth curve, ΔcopA (ΔcopA mutant strain): susceptible; also recorded: does cause a growth defect
copper-dependent toxicity (CDT) / growth defect in growth curve (WT TIGR4 S. pneumoniae [1]; WT TIGR4): no 8HQ mediated CDT; also recorded: do not cause a significant growth defect

CCN(CC)C(=S)S [DETDC, N,N-diethyldithiocarbamate]
CDT at much higher / high concentrations (WT TIGR4 S. pneumoniae [1]; with copper): no effect

CN(C)C(=S)[S][Na] [DMDC]
side effects (Coccidioides posadasii): No side effects
time required for killing (WT TIGR4 S. pneumoniae [3]): 1 to 2 h
side effects [4]: No side effects
toxicity of chronic use ([2]; chronic use): harm the liver and lead to higher rates of some carcinomas
toxicity of high doses ([2]; high doses): neurological problems
increase of intracellular copper compared to the untreated control (TIGR4 S. pneumoniae [5]; 250 μM Cu2+ + 16 μM DMDC): 65 fold
increase of intracellular copper compared to the untreated control (TIGR4 S. pneumoniae [5]; 250 μM Cu2+ + 32 μM DMDC): 67 fold
time required for killing (WT TIGR4 S. pneumoniae [6]): 3 to 4 h
side effects (Streptococcus pneumoniae): No side effects
side effects (Streptococcus pyogenes): No side effects
increase of intracellular copper compared to the copper treated samples (TIGR4 S. pneumoniae [7]; 250 μM Cu2+ + 16 μM DMDC): 7 fold
increase of intracellular copper compared to the copper treated samples (TIGR4 S. pneumoniae [7]; 250 μM Cu2+ + 32 μM DMDC): 10 fold
kill of wild-type Streptococcus pneumoniae (WT TIGR4 S. pneumoniae [8]; low micromolar DMDC complexed with copper, in 2 hours): up to 99.9%

N=C(N)NOCC[C@H](N)C(=O)O [L-canavanine]
recovered bacteria with macrophage inhibitor treatment [9]: no statistically significant improvement

CC1(C)C2CC3OB(c4cccc5cccnc45)OC3(C)C1C2 (stereo not drawn) [QBP, quinoline boronic acid pinanediol ester]
CDT / growth defect in growth curve, ΔcopA (ΔcopA mutant strain): susceptible; also recorded: does cause a growth defect
CDT on the ΔcopA mutant as compared to 8HQ (ΔcopA mutant strain): did not exhibit as much CDT
copper-dependent toxicity (CDT) / growth defect in growth curve (WT TIGR4 S. pneumoniae [1]; WT TIGR4): no CDT; also recorded: do not cause a significant growth defect

CCN(CC)C(=S)SSC(=S)N(CC)CC [TETD, tetraethylthiuram disulfide]
growth with compound alone (WT TIGR4 S. pneumoniae [1]; TETD alone, no copper): prevented growth
copper-dependent toxicity (CDT) / growth defect in growth curve (WT TIGR4 S. pneumoniae [1]; WT TIGR4): returned growth to wild type levels
copper-dependent toxicity (CDT) / growth defect in growth curve (WT TIGR4 S. pneumoniae [1]; WT TIGR4, listed as disulfiram): not observed
copper dependent toxicity against M. tuberculosis (M. tuberculosis): copper dependent toxicity
bactericidal activity in killing curve (WT TIGR4 S. pneumoniae [8]; compound alone or with copper sulfate): did not show bactericidal activity

S=C(S)N1CCN(C(=S)S)CC1 [TLA2, Piperizine bis-dithiocarbamate]
concentration showing protective effect vs copper (WT TIGR4 S. pneumoniae [1]; 250 uM or 500 uM copper sulfate): > 32 µM

COc1cc(C(C)=O)ccc1O [apocynin]
recovered bacteria with macrophage inhibitor treatment [9]: no statistically significant improvement

O=C(C1CCCCC1)N1CC(=O)N2CCc3ccccc3C2C1 (stereo not drawn) [praziquantel]
efficacy of praziquantel in these developmental stages (Schistosoma mansoni): not effective

Cc1ncc(CSSCc2cnc(C)c(O)c2CO)c(CO)c1O.Cl [pyrithoxin dihydrochloride]
copper-dependent toxicity (CDT) / growth defect in growth curve (WT TIGR4 S. pneumoniae [1]; WT TIGR4): no effect
